# Assay results from PubChem BioAssay (NCI).
#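 Five compound concentrations were applied to cells in 96-well plates for 48 hours; endpoints were derived by simple linear interpolation of the resulting dose-response curve. GI50: concentration for 50% inhibition of growth. TGI is the concentration that stops growth completely.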
# Columns and labels:
# Assay in all cases: inhibition of tumour cell growth, NCI panel, 48 h
# HOP-92 NSCLC = system: HOP-92 NSCLC
# UACC-62 melanoma = system: UACC-62 melanoma
# SNB-19 CNS = system: SNB-19 CNS
# HCT-15 colon = system: HCT-15 colon
# SF-539 CNS = system: SF-539 CNS
# SW-620 colon = system: SW-620 colon
# T-47D breast = system: T-47D breast
# MDA-MB-231 breast = system: MDA-MB-231 breast
# MCF7 breast = system: MCF7 breast
# NCI-H460 lung = system: NCI-H460 lung
Compound,TGI (HOP-92 NSCLC),TGI (UACC-62 melanoma),TGI (SNB-19 CNS),TGI (HCT-15 colon),TGI (SF-539 CNS),TGI (SW-620 colon),TGI (T-47D breast),TGI (MDA-MB-231 breast),TGI (MCF7 breast),TGI (NCI-H460 lung),GI50 (SF-539 CNS)
NCc1ccc(-c2ccc(-c3ccc(-c4ccc(CN)s4)s3)s2)s1,> 100 µM,> 100 µM,> 100 µM,> 100 µM,> 100 µM,> 100 µM,> 100 µM,> 100 µM,> 100 µM,–,–
COC(=O)c1ccccc1C1CN=NC12Cc1ccc3ccccc3c1C2=O (stereo not drawn),> 100 µM,> 100 µM,> 100 µM,> 100 µM,> 100 µM,> 100 µM,96.9 µM,> 100 µM,> 100 µM,> 100 µM,–
CCOC(=O)CC(=O)NC1CC2CCC1(C)C2(C)C (stereo not drawn),–,> 100 µM,> 100 µM,> 100 µM,> 100 µM,> 100 µM,–,> 100 µM,> 100 µM,> 100 µM,–
CC(=O)OCC1OC(On2ccccc2=S)C(OC(C)=O)C(OC(C)=O)C1OC(C)=O (stereo not drawn),> 100 µM,> 100 µM,> 100 µM,> 100 µM,> 100 µM,> 100 µM,> 100 µM,> 100 µM,> 100 µM,> 100 µM,–
Cc1ccc(S(=O)ON2CCC(C(=O)O)(c3ccccc3)CC2)cc1 (stereo not drawn),> 100 µM,> 100 µM,> 100 µM,> 100 µM,> 100 µM,> 100 µM,> 100 µM,> 100 µM,> 100 µM,> 100 µM,> 100 µM
CCC1(C)C=Cc2c(cc(OC)c3c(=O)c4ccccc4n(C)c23)O1 (stereo not drawn),> 10 µM,> 10 µM,> 10 µM,> 10 µM,> 10 µM,> 10 µM,> 10 µM,> 10 µM,> 10 µM,> 10 µM,–
CCOC(=O)c1nc2cc(N3CCOCC3)c(F)cc2[nH]c1=O,> 100 µM,> 100 µM,> 100 µM,> 100 µM,> 100 µM,> 100 µM,> 100 µM,> 100 µM,> 100 µM,> 100 µM,–
O=C(NN=C1CCN(Cc2ccccc2)CC1)C(O)(c1ccccc1)c1ccccc1,> 100 µM,> 100 µM,> 100 µM,> 100 µM,> 100 µM,> 100 µM,> 100 µM,> 100 µM,> 100 µM,–,–
CCN(CC)CCn1c(C(C)(C)C)nc2ccccc21,> 100 µM,> 100 µM,> 100 µM,> 100 µM,> 100 µM,> 100 µM,–,–,> 100 µM,> 100 µM,–
NC(N)=NCCCC(N=c1c2ccccc2n(O)c2ccccc12)C(=O)O (stereo not drawn),–,> 100 µM,> 100 µM,> 100 µM,–,> 100 µM,–,–,–,> 100 µM,–
CCOC(=O)CN1CCNCCN(CC(=O)OCC)CCNCC1,> 100 µM,> 100 µM,> 100 µM,> 100 µM,> 100 µM,–,> 100 µM,> 100 µM,> 100 µM,> 100 µM,–
CSc1ccc2c(cc1=O)[C@@H](NC(C)=O)CCc1cc(O)c(O)c(O)c1-2,70.6 µM,> 100 µM,78.9 µM,34.2 µM,–,> 100 µM,> 100 µM,72.2 µM,19.8 µM,36.2 µM,–
CCOC(=O)c1c(C)n(Cc2ccccc2)c(=O)c2ccccc2c(=O)c2c(=O)ccc(=O)c1=2,41.5 µM,> 100 µM,> 100 µM,> 100 µM,> 100 µM,> 100 µM,86.3 µM,> 100 µM,–,> 100 µM,–
COc1c(CC=C(C)C)c(O)c(C(CC(C)C)c2c(O)c(C(C)=O)c(O)c3c2OC(C(C)(C)O)C3)c(O)c1C(C)=O (stereo not drawn),5.21 µM,> 12.5 µM,> 12.5 µM,> 12.5 µM,> 12.5 µM,> 12.5 µM,8.36 µM,–,> 12.5 µM,> 12.5 µM,–
CN1CCCN2CCN(C)CCN(CC1)CC2,> 100 µM,> 100 µM,> 100 µM,> 100 µM,> 100 µM,> 100 µM,> 100 µM,> 100 µM,> 100 µM,> 100 µM,–
CCOC(=O)C1C(=O)CC(O)(OCC)C(C(=O)OCC)C1c1ccc(OC)cc1 (stereo not drawn),> 100 µM,> 100 µM,> 100 µM,> 100 µM,–,> 100 µM,> 100 µM,> 100 µM,> 100 µM,> 100 µM,–
Cc1ccc(-c2c(C#N)c(-c3ccc(Cl)cc3)c(C#N)c(=O)n2NS(=O)(=O)c2ccccc2)cc1,> 100 µM,> 100 µM,> 100 µM,> 100 µM,> 100 µM,> 100 µM,–,> 100 µM,> 100 µM,> 100 µM,–
Cn1cc(C(=O)c2nccc3c2cnc2ccccc23)ccc1=O,> 100 µM,> 100 µM,> 100 µM,> 100 µM,> 100 µM,> 100 µM,> 100 µM,> 100 µM,–,> 100 µM,–
CCN1CC2=C(N=c3s/c(=C\c4ccc(Cl)cc4)c(=O)n3C2c2ccc(Cl)cc2)/C(=C/c2ccc(Cl)cc2)C1 (stereo not drawn),–,> 100 µM,> 100 µM,> 100 µM,–,> 100 µM,–,> 100 µM,> 100 µM,> 100 µM,–
O=C(O)CC(C(=O)O)c1ccccc1[N+](=O)[O-] (stereo not drawn),> 100 µM,> 100 µM,> 100 µM,> 100 µM,–,> 100 µM,> 100 µM,> 100 µM,> 100 µM,> 100 µM,–
Cc1ccc(/C=C2\CN(C)CC3=C2OC(N)=C(C#N)C3c2ccc(C)cc2)cc1 (stereo not drawn),15.9 µM,89.1 µM,73.4 µM,42.9 µM,> 100 µM,> 100 µM,71.2 µM,> 63.7 µM,47.8 µM,34.3 µM,–
COC(CN(C)C(=O)C(C)NC(=O)c1ccccc1)OC (stereo not drawn),> 100 µM,> 100 µM,–,> 100 µM,> 100 µM,> 100 µM,> 100 µM,> 100 µM,> 100 µM,> 100 µM,–
